Legend:
Type in all cases: ADME
[1] = (§1) The drug is tested on the gut metagenome community of P-03 with ENA study accession number: PRJEB31790 for biotransformation under anaerobic condition. The drug concentrations were measured over 7 timepoints collected between 0 and 12 hours of incubation by liquid-chromatography-coupled mass spectrometry (LC–MS); parameters: dose 5 uM, timepoint 0, 0.75, 1.5, 3, 6, 9, 12 hours; settings: 5 µM
[2] = The drug is tested on Bacteroides thetaiotaomicron strain: DSM2079 for biotransformation under anaerobic condition. The drug concentrations were measured over 6 timepoints collected between 0 and 12 hours of incubation by liquid-chromatography-coupled mass spectrometry (LC–MS); parameters: dose 5 uM, timepoint 0, 1.5, 3, 6, 9, 12 hours; settings: 5 µM
[3] = as §1, with “A-01” for “P-03”, “microaerobic” for “anaerobic”; parameters: dose 5 uM, timepoint 0, 0.75, 1.5, 3, 6, 9, 12 hours; settings: 5 µM
[4] = The drug is tested on Gemella haemolysans strain: DSM107751 for biotransformation under anaerobic condition. The drug concentrations were measured over 6 timepoints collected between 0 and 12 hours of incubation by liquid-chromatography-coupled mass spectrometry (LC–MS); parameters: dose 5 uM, timepoint 0, 1.5, 3, 6, 9, 12 hours; settings: 5 µM
[5] = The drug is tested on Alloscardovia omnicolens strain: DSM21503 for biotransformation under microaerobic condition. The drug concentrations were measured over 6 timepoints collected between 0 and 12 hours of incubation by liquid-chromatography-coupled mass spectrometry (LC–MS); parameters: dose 5 uM, timepoint 0, 1.5, 3, 6, 9, 12 hours; settings: 5 µM
[6] = The drug is tested on Escherichia coli strain: DSM27469 for biotransformation under anaerobic condition. The drug concentrations were measured over 6 timepoints collected between 0 and 12 hours of incubation by liquid-chromatography-coupled mass spectrometry (LC–MS); parameters: dose 5 uM, timepoint 0, 1.5, 3, 6, 9, 12 hours; settings: 5 µM
[7] = The drug is tested on Lactobacillus paracasei strain: ATCC27092 for biotransformation under anaerobic condition. The drug concentrations were measured over 6 timepoints collected between 0 and 12 hours of incubation by liquid-chromatography-coupled mass spectrometry (LC–MS); parameters: dose 5 uM, timepoint 0, 1.5, 3, 6, 9, 12 hours; settings: lacticaseibacillus paracasei, 5 µM
[8] = The drug is tested on Bacteroides vulgatus strain: DSM1447 for biotransformation under anaerobic condition. The drug concentrations were measured over 6 timepoints collected between 0 and 12 hours of incubation by liquid-chromatography-coupled mass spectrometry (LC–MS); parameters: dose 5 uM, timepoint 0, 1.5, 3, 6, 9, 12 hours; settings: phocaeicola vulgatus, 5 µM
[9] = The drug is tested on Lactobacillus fermentum strain: DSM20052 for biotransformation under anaerobic condition. The drug concentrations were measured over 6 timepoints collected between 0 and 12 hours of incubation by liquid-chromatography-coupled mass spectrometry (LC–MS); parameters: dose 5 uM, timepoint 0, 1.5, 3, 6, 9, 12 hours; settings: limosilactobacillus fermentum, 5 µM
[10] = The drug is tested on Akkermansia muciniphila strain: DSM22959 for biotransformation under anaerobic condition. The drug concentrations were measured over 6 timepoints collected between 0 and 12 hours of incubation by liquid-chromatography-coupled mass spectrometry (LC–MS); parameters: dose 5 uM, timepoint 0, 1.5, 3, 6, 9, 12 hours; settings: 5 µM
[11] = as §1, with “P-01” for “P-03”; parameters: dose 5 uM, timepoint 0, 0.75, 1.5, 3, 6, 9, 12 hours; settings: 5 µM
[12] = The drug is tested on Lactobacillus gasseri strain: DSM20243 for biotransformation under anaerobic condition. The drug concentrations were measured over 6 timepoints collected between 0 and 12 hours of incubation by liquid-chromatography-coupled mass spectrometry (LC–MS); parameters: dose 5 uM, timepoint 0, 1.5, 3, 6, 9, 12 hours; settings: 5 µM
[13] = as §1, with “A-02” for “P-03”, “microaerobic” for “anaerobic”; parameters: dose 5 uM, timepoint 0, 0.75, 1.5, 3, 6, 9, 12 hours; settings: 5 µM
[14] = The drug is tested on Clostridium ramosum strain: DSM1402 for biotransformation under anaerobic condition. The drug concentrations were measured over 6 timepoints collected between 0 and 12 hours of incubation by liquid-chromatography-coupled mass spectrometry (LC–MS); parameters: dose 5 uM, timepoint 0, 1.5, 3, 6, 9, 12 hours; settings: thomasclavelia ramosa, 5 µM
[15] = The drug is tested on Clostridium scindens strain: DSM5676 for biotransformation under anaerobic condition. The drug concentrations were measured over 6 timepoints collected between 0 and 12 hours of incubation by liquid-chromatography-coupled mass spectrometry (LC–MS); parameters: dose 5 uM, timepoint 0, 1.5, 3, 6, 9, 12 hours; settings: 5 µM
[16] = The drug is tested on Lactobacillus reuteri strain: DSM20016 for biotransformation under anaerobic condition. The drug concentrations were measured over 6 timepoints collected between 0 and 12 hours of incubation by liquid-chromatography-coupled mass spectrometry (LC–MS); parameters: dose 5 uM, timepoint 0, 1.5, 3, 6, 9, 12 hours; settings: limosilactobacillus reuteri, 5 µM
[17] = The drug is tested on Lactobacillus ruminis strain: ATCC25644 for biotransformation under anaerobic condition. The drug concentrations were measured over 6 timepoints collected between 0 and 12 hours of incubation by liquid-chromatography-coupled mass spectrometry (LC–MS); parameters: dose 5 uM, timepoint 0, 1.5, 3, 6, 9, 12 hours; settings: ligilactobacillus ruminis, 5 µM
[18] = as §1, with “P-04” for “P-03”, “microaerobic” for “anaerobic”; parameters: dose 5 uM, timepoint 0, 0.75, 1.5, 3, 6, 9, 12 hours; settings: 5 µM
[19] = The drug is tested on Streptococcus anginosus strain: DSM20563 for biotransformation under microaerobic condition. The drug concentrations were measured over 6 timepoints collected between 0 and 12 hours of incubation by liquid-chromatography-coupled mass spectrometry (LC–MS); parameters: dose 5 uM, timepoint 0, 1.5, 3, 6, 9, 12 hours; settings: 5 µM
[20] = as §1, with “A-04” for “P-03”; parameters: dose 5 uM, timepoint 0, 0.75, 1.5, 3, 6, 9, 12 hours; settings: 5 µM
[21] = The drug is tested on Lactobacillus reuteri strain: DSM20016 for biotransformation under microaerobic condition. The drug concentrations were measured over 6 timepoints collected between 0 and 12 hours of incubation by liquid-chromatography-coupled mass spectrometry (LC–MS); parameters: dose 5 uM, timepoint 0, 1.5, 3, 6, 9, 12 hours; settings: limosilactobacillus reuteri, 5 µM
[22] = as §1, with “A-10” for “P-03”; parameters: dose 5 uM, timepoint 0, 0.75, 1.5, 3, 6, 9, 12 hours; settings: 5 µM
[23] = The drug is tested on Alloscardovia omnicolens strain: DSM21503 for biotransformation under anaerobic condition. The drug concentrations were measured over 6 timepoints collected between 0 and 12 hours of incubation by liquid-chromatography-coupled mass spectrometry (LC–MS); parameters: dose 5 uM, timepoint 0, 1.5, 3, 6, 9, 12 hours; settings: 5 µM
[24] = The drug is tested on Streptococcus sanguinis strain: DSM20567 for biotransformation under microaerobic condition. The drug concentrations were measured over 6 timepoints collected between 0 and 12 hours of incubation by liquid-chromatography-coupled mass spectrometry (LC–MS); parameters: dose 5 uM, timepoint 0, 1.5, 3, 6, 9, 12 hours; settings: 5 µM
[25] = as §1, with “A-03” for “P-03”, “microaerobic” for “anaerobic”; parameters: dose 5 uM, timepoint 0, 0.75, 1.5, 3, 6, 9, 12 hours; settings: 5 µM
[26] = as §1, with “T-03” for “P-03”, “microaerobic” for “anaerobic”; parameters: dose 5 uM, timepoint 0, 0.75, 1.5, 3, 6, 9, 12 hours; settings: 5 µM
[27] = as §1, with “T-02” for “P-03”; parameters: dose 5 uM, timepoint 0, 0.75, 1.5, 3, 6, 9, 12 hours; settings: 5 µM
[28] = The drug is tested on Gemella morbillorum strain: DSM20572 for biotransformation under microaerobic condition. The drug concentrations were measured over 6 timepoints collected between 0 and 12 hours of incubation by liquid-chromatography-coupled mass spectrometry (LC–MS); parameters: dose 5 uM, timepoint 0, 1.5, 3, 6, 9, 12 hours; settings: 5 µM
[29] = as §1, with “P-02” for “P-03”; parameters: dose 5 uM, timepoint 0, 0.75, 1.5, 3, 6, 9, 12 hours; settings: 5 µM
[30] = as §1, with “A-01” for “P-03”; parameters: dose 5 uM, timepoint 0, 0.75, 1.5, 3, 6, 9, 12 hours; settings: 5 µM

Bacterial Biotransformation [1] | Bacterial Biotransformation [2] | Bacterial Biotransformation [3] | Bacterial Biotransformation [5] | Bacterial Biotransformation [6] | Bacterial Biotransformation [7] | Bacterial Biotransformation [8] | Bacterial Biotransformation [9] | Bacterial Biotransformation [10] | Bacterial Biotransformation [11] | Bacterial Biotransformation [12] | Bacterial Biotransformation [13] | Bacterial Biotransformation [14] | Bacterial Biotransformation [15] | Bacterial Biotransformation [16] | Bacterial Biotransformation [17] | Bacterial Biotransformation [18] | Bacterial Biotransformation [19] | Bacterial Biotransformation [20] | Compound | Bacterial Biotransformation [4] | also measured
Compound NOT metabolized | Compound NOT metabolized | Compound NOT metabolized | Compound NOT metabolized | Compound NOT metabolized | Compound NOT metabolized | Compound NOT metabolized | Compound NOT metabolized | Compound NOT metabolized | Compound NOT metabolized | Compound NOT metabolized | Compound metabolized | Compound NOT metabolized | Compound metabolized | Compound NOT metabolized | Compound NOT metabolized | Compound NOT metabolized | Compound NOT metabolized | Compound metabolized | C[C@@H]1C[C@H]2[C@@H]3CCC4=CC(=O)C=C[C@]4(C)[C@@]3(F)[C@@H](O)C[C@]2(C)[C@@]1(O)C(=O)CO [DEXAMETHASONE] | Compound NOT metabolized | Bacterial Biotransformation [21]: Compound NOT metabolized; Bacterial Biotransformation [22]: Compound NOT metabolized; Bacterial Biotransformation [23]: Compound NOT metabolized; Bacterial Biotransformation [24]: Compound NOT metabolized; Bacterial Biotransformation [25]: Compound NOT metabolized; Bacterial Biotransformation [26]: Compound NOT metabolized; Bacterial Biotransformation [27]: Compound metabolized; Bacterial Biotransformation [28]: Compound NOT metabolized; Bacterial Biotransformation [29]: Compound metabolized; Bacterial Biotransformation [30]: Compound NOT metabolized
Compound metabolized | Compound metabolized | Compound metabolized | Compound NOT metabolized | Compound NOT metabolized | Compound NOT metabolized | Compound NOT metabolized | Compound NOT metabolized | Compound NOT metabolized | Compound metabolized | Compound NOT metabolized | Compound metabolized | Compound NOT metabolized | Compound NOT metabolized | Compound NOT metabolized | Compound NOT metabolized | Compound NOT metabolized | Compound NOT metabolized | Compound metabolized | COc1ccc([C@@H]2Sc3ccccc3N(CCN(C)C)C(=O)[C@@H]2OC(C)=O)cc1 [DILTIAZEM] | Compound NOT metabolized | Bacterial Biotransformation [21]: Compound NOT metabolized; Bacterial Biotransformation [22]: Compound NOT metabolized; Bacterial Biotransformation [23]: Compound NOT metabolized; Bacterial Biotransformation [24]: Compound NOT metabolized; Bacterial Biotransformation [25]: Compound metabolized; Bacterial Biotransformation [26]: Compound NOT metabolized; Bacterial Biotransformation [27]: Compound NOT metabolized; Bacterial Biotransformation [28]: Compound metabolized; Bacterial Biotransformation [29]: Compound metabolized; Bacterial Biotransformation [30]: Compound metabolized
Compound NOT metabolized | Compound NOT metabolized | Compound metabolized | Compound NOT metabolized | Compound NOT metabolized | Compound NOT metabolized | Compound NOT metabolized | Compound NOT metabolized | Compound NOT metabolized | Compound NOT metabolized | Compound NOT metabolized | Compound metabolized | Compound NOT metabolized | Compound metabolized | Compound NOT metabolized | Compound NOT metabolized | Compound NOT metabolized | Compound NOT metabolized | Compound metabolized | CO[C@H]1C[C@@H]2CC[C@@H](C)[C@@](O)(O2)C(=O)C(=O)N2CCCC[C@H]2C(=O)O[C@H]([C@H](C)C[C@@H]2CC[C@@H](OCCO)[C@H](OC)C2)CC(=O)[C@H](C)/C=C(\C)[C@@H](O)[C@@H](OC)C(=O)[C@H](C)C[C@H](C)/C=C/C=C/C=C/1C [EVEROLIMUS] | Compound NOT metabolized | Bacterial Biotransformation [21]: Compound NOT metabolized; Bacterial Biotransformation [22]: Compound metabolized; Bacterial Biotransformation [23]: Compound NOT metabolized; Bacterial Biotransformation [24]: Compound NOT metabolized; Bacterial Biotransformation [25]: Compound metabolized; Bacterial Biotransformation [26]: Compound NOT metabolized; Bacterial Biotransformation [27]: Compound metabolized; Bacterial Biotransformation [28]: Compound NOT metabolized; Bacterial Biotransformation [29]: Compound NOT metabolized; Bacterial Biotransformation [30]: Compound metabolized
